Measured values as given in patent US20130130306A1, “ZN (II) BASED COLORIMETRIC SENSOR AND PROCESS FOR THE PREPARATION THEREOF” (COUNCIL OF SCIENTIFIC & INDUSTRIAL RESEARCH, priority 2010, published 2013).

Experiments:
[1] = system: Pseudomonas fluorescence (Gram −ve); assay: Staining of Gram −ve bacteria, light microscopy and growth kinetics; assay type: cell-based; design: change in color of bacterial stains: dose or concentration left out as unconfirmed; settings: for growth of colonies streaked on nutrient agar plates after incubation with sensor: Pseudomonas species in King's B media, 25° C., 10 mins
Experimental: (§1) The isolates of Saccharomyces sp. were cultured in GYE (glucose yeast extract agar) media, Bacillus sp. in Nutrient broth, and Pseudomonas sp. in King's B medium for 24 hour at 37° C. […] of this was taken and was allowed to incubate at 30 to 40° C. along with 100 μl of L.Zn (Scheme 1, Formula 1A) (1.16×10^−4 M) solution. The samples were fixed overnight at room temperature 25-30° C. with 2% (v/v) glutaraldehyde in 0.1 M phosphate buffer at pH 7.5. The samples were then washed with 0.1 M phosphate buffer (pH 7.5) at room temperature 25-30° C. for 1 hour. Post-fixation was carried out in 2% (w/v) osmium tetroxide (OsO4) in the same buffer and was washed once with 0.1 M phosphate buffer for 20 minutes. Then, the water was removed by a graded water-ethanol series; 25% ethanol for 15 min, 50% ethanol for 15 min, 75% ethanol for 30 min, 90% ethanol for 60 min, absolute alcohol for 30 min. The specimens were rinsed in buffer and coated with gold in a sputter coater (Polaron SC7620) prior to microscopy. The material was examined in a Scanning Electron Microscope (SEM) LEO 1430 VP at an accelerating Voltage of 15 kV.
(§2) The isolates of Saccharomyces sp. were cultured in GYE (glucose yeast extract agar) media, Bacillus sp. in Nutrient broth, and Pseudomonas sp. in King's B medium for 24 hour at 37° C. 1001 of this was taken and was allowed to incubate at room temperature along with 1001 of [L.Zn]=1.16×10^−4M solution (pH 7.2, 10 mM HEPES buffer solution). The samples were fixed overnight at 25 to 35° C. with 2% (v/v) glutaraldehyde in 0.1 M phosphate buffer at pH 7.5. The samples were then; washed with 0.1 M phosphate buffer (pH 7.5) at 25 to 35° C. for 1 hour. Post-fixation was carried out in 2% (w/v) osmium tetroxide (OsO4) in the same buffer and was washed once with 0.1 M phosphate buffer for 20 minutes. Then, the water was removed by a graded water-ethanol series; 25% ethanol for 15 min, 50% ethanol for 15 min, 75% ethanol for 30 min, 90% ethanol for 60 min, absolute alcohol for 30 min. The specimens were rinsed in buffer and coated with gold in a sputter coater (Polaron SC7620) prior to microscopy. The material was examined in a scanning electron microscope (SEM) LEO 1430 VP at an accelerating Voltage of 15 kV.
We also explored the possibility of using L.Zn/L.Zn.α-CD as the staining agent for prokaryotes (Gram +ve and Gram −ve bacterial cells). […] As expected stained cells for Gram +ve bacteria appeared longer as compared to those of the stained Gram −ve bacteria. The difference in the staining intensity for two different bacteria with the L.Zn.α-CD (Scheme 2) could be much better understood after going into the depth of cell biology of each bacterial cells and the detailed biochemistry involved while staining; besides, difference in cell structure and cell wall composition of the respective bacteria. […] Changes on the cell surfaces on binding of the dye, L.Zn (Scheme 1, Formula 1A) were also evident from the SEM images recorded for Gram −ve and Gram +ve bacteria, in absence and presence of staining agent (FIGS. 11C to 11F). Difference in the contrasts in the SEM images of the sample surfaces also signifies the non-homogeneous chemical nature of the sample surface. […] The growth profile of Eukaryotic Yeast cells (Saccharomyces cerevisiae) and Prokaryotic bacterial cells ([…]) in an aqueous culture medium in absence and presence of L.Zn (Scheme 1, Formula 1A) are shown in FIG. 12. […]

[2] = system: Yeast cells (Saccharomyces cerevisiae); assay: Staining of Yeast cells, light microscopy and SEM; assay type: cell-based
Experimental: as §1, §2
We have therefore, been able to use the receptor molecule, L.Zn (Scheme 1, Formula 1A) for staining Eukaryotic cells. Yeast cells were exposed to the receptor molecule L.Zn (Scheme 1, Formula 1A) (1.16×10^−4 M) for 20 min or L.Zn-CD (Scheme 2) (([L.Zn]=0.5×10^−3 M [α-CD]=2.92×10^−3 M) for 2 min followed by subsequent washing with water mixtures and then viewed under a light microscope (AXIO IMAGER-Carl Zeiss).
Ethanol is known to act as a dehydrator and a good fixative of biological samples. […] This confirms the binding of the ATP ions of the cell surface to L.Zn (Scheme 1, Formula 1A) as the plausible reason for the observed staining. […] This observation could be explained on the basis of the reversible binding of ATP, produced in situ in the Yeast cells.

## CN(C)c1ccc(N=Nc2ccc(S(=O)(=O)N3CCCNCCNCCCNCC3)cc2)cc1.O=[N+]([O-])[O-].O=[N+]([O-])[O-].[Zn+2] [L.Zn]
[1]; sensor 1.0×10^−4 M
  growth of colonies streaked on nutrient agar plates after incubation with sensor: colonies of the test microbes grew
[1]; sensor 1.25×10^−4 M
  growth of colonies streaked on nutrient agar plates after incubation with sensor: colonies of the test microbes grew
[1]; sensor 1.45×10^−4 M
  growth of colonies streaked on nutrient agar plates after incubation with sensor: colonies of the test microbes grew
[1]; extent of absorbance changes and slope, growth kinetics at 600 nm
  binding to ATP released during cell growth, Gram −ve compared to Gram +ve: higher binding
[1]; light microscopy
  change in color of bacterial stains: distinct change in color
[2]; L.Zn 0.116 mM, light microscopy
  color of Yeast cells after treatment: pink-violet
[2]; Saccharamyces species in GYE media, sensor 1.0×10^−4 M, 25° C., 10 mins
  growth of colonies streaked on nutrient agar plates after incubation with sensor: colonies of the test microbes grew
[2]; control treatment of cells
  control experiments: change in color of Yeast cells: no such change in color was observed
[2]; excess (50 mole equivalent) of citrate ion
  destaining of stained Yeast cells by citrate (reversible binding): became colorless
[2]; washing with water/ethanol (70/30, v/v)
  stability of staining after washing: stable
